Assay in all cases: growth of human tumour cells (NCI), 48 h
The subject of test [1] is UO-31 renal.
Test [2] deals with NCI-H522 lung.
Test [3] deals with CAKI-1 renal.
The test system of test [4] is LOX IMVI melanoma.
The test system of test [5] is UACC-257 melanoma.
For test [6], the system named is SK-OV-3 ovarian.
The test system of test [7] is SK-MEL-5 melanoma.
Test [8] concerns NCI-H226 lung.

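96-well plates; 48 h exposure; 5 concentrations. Endpoints by linear interpolation between flanking doses. Not reached: highest tested concentration assigned. Abbreviation: GI50, concentration required for 50% inhibition of growth. At the TGI there is no net growth.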 Bounds are passed on as bounds.

`COc1cc(Nc2nc3cc(N)cc(N)c3nc2-c2ccccc2)cc(OC)c1OC`: the GI50 in test [1] was 15.1 µM; in test [2] it was 18.2 µM; in test [3], 15.5 µM; in test [4] it was 18.5 µM; in test [5], 29.6 µM; in test [6], 23 µM. Also, the GI50 in test [7] was 13 µM. The TGI was 90.3 µM in test [1]; 53.1 µM in test [2]; 48.5 µM in test [3]; 49 µM in test [4]; above 100 µM in test [5]; 57.8 µM in test [6]. In addition, the TGI in test [7] stood at 27.8 µM.

For the compound `CCC(C)[C@H]1O[C@]2(CC[C@@H]1C)C[C@@H]1C[C@@H](C/C=C(\C)[C@@H](OC3C[C@H](OC)C(O[C@H]4C[C@H](OC)[C@@H](O)[C@H](C)O4)[C@H](C)O3)[C@@H](C)/C=C/C=C3\CO[C@@H]4[C@H](O)C(C)=C[C@@H](C(=O)O1)[C@]34O)O2` (stereo not given in full), the GI50 in test [8] was 1.58 µM; in test [1] it was 1.85 µM; in test [3] it was 2.6 µM; in test [4] it was 2.3 µM; in test [5], 2.17 µM; in test [6] it was 2 µM. In test [7], the GI50 is 1.49 µM. In addition, the TGI stood at 3.79 µM in test [8]; 10.2 µM in test [1]; 11.2 µM in test [3]; 5.79 µM in test [4]; 6.25 µM in test [5]; 5.04 µM in test [6]. In test [7], this compound registered a TGI of 2.82 µM.

Consider `CC(C)C1=CC(=O)C(C)(C2C(O)CC3(C)C4CC=C5C(CCC(OC6OC(CO)C(O)C(O)C6OC6OC(C)C(O)C(O)C6O)C5(C)C)C4(C)C(=O)CC23C)O1` (stereo not given), for which the TGI in test [8], in test [1], in test [2], in test [3], in test [5] and in test [6] was above 100 µM in each case. The compound also came in with a TGI in test [7] above 100 µM.

Turning to `CCOC(=O)/C(=C/N1CCN(C(=O)c2ccco2)C1=S)C(=O)c1ccccc1`, the GI50 in test [1] was 9.99 µM; in test [3], 15.9 µM; in test [4], 6.48 µM; in test [6] it was 20 µM; in test [7], below 0.005 µM. In addition, the TGI in test [1] is 19.3 µM; in test [3], above 50 µM; in test [4], 14.2 µM; in test [6], above 50 µM; in test [7], below 0.005 µM.

`O=C(Nc1ccc2[nH]nc(-c3ccncc3)c2c1)[C@@H]1CCN(CC(=O)N2CCN(c3ccc(-c4ncccn4)cc3)CC2)C1`: the GI50 in test [8] is above 100 µM; in test [2], 7.27 µM; in test [4], 0.0539 µM; in test [6] it was above 100 µM; in test [7] it was 0.607 µM. In addition, the TGI in test [8], in test [2], in test [4], in test [6] and in test [7] was above 100 µM in each case.

On to `Cc1nc([P+](c2ccccc2)(c2ccccc2)c2ccccc2)c(Sc2sc(-c3ccccc3)nc2[P+](c2ccccc2)(c2ccccc2)c2ccccc2)o1`, for which the GI50 in test [1] is 1.81 µM; in test [2] it was 1.43 µM; in test [3], 2.69 µM; in test [4], 1.82 µM; in test [5], 2 µM; in test [7] it was 1.48 µM. In addition, the TGI in test [1] turned out to be 5.99 µM; in test [2], 6.15 µM; in test [3], 9.71 µM; in test [4], 5.71 µM; in test [5] it was 8.81 µM; in test [7], 2.85 µM.

On to `O=C(CC(Cl)=C(Cl)Cl)Nc1ccccc1`, for which the GI50 in test [8], in test [1], in test [2], in test [4], in test [5] and in test [6] was above 100 µM each time. Further, the GI50 in test [7] is above 100 µM. Further, the TGI in test [8], in test [1], in test [2], in test [4], in test [5] and in test [6] was above 100 µM each time. The same compound returned a TGI in test [7] above 100 µM.

As for `O=C(Oc1cccc2cccnc12)c1cc2c(cc1Cl)SC(N(c1ccc(F)cc1)S(=O)(=O)c1ccc(Br)s1)=NS2(=O)=O`, the GI50 in test [8] was 66.4 µM; in test [1] it was 34.2 µM; in test [2] it was 19.6 µM; in test [3], 31.6 µM; in test [4], 15.8 µM; in test [6], above 100 µM. In addition, the GI50 in test [7] was 18.2 µM. The TGI in test [8] is above 100 µM; in test [1], above 100 µM; in test [2], 48.3 µM; in test [3], 97.6 µM; in test [4] it was 64.2 µM; in test [6], above 100 µM. The compound also displayed a TGI in test [7] of 39.8 µM.

Take `O=C(Cc1ccc(/C=C/C(=O)c2ncc[nH]2)cc1)Nc1ccc(F)cc1`: the GI50 in test [8] is 9.85 µM; in test [1], 2.64 µM; in test [2], 3.38 µM; in test [4], 1.07 µM; in test [5], 8.67 µM; in test [6], 9.38 µM. Further, the GI50 in test [7] was 6.06 µM. Besides, the TGI was above 33.3 µM in test [8]; 7.06 µM in test [1]; 9.42 µM in test [2]; 4.72 µM in test [4]; 30.6 µM in test [5]; above 33.3 µM in test [6]. The compound further displayed a TGI in test [7] of 11.9 µM.

As for `Cc1nc2ccc(Nc3nc(Cl)nc(N4CCOCC4)n3)cc2n1Cc1ccccc1`, the GI50 in test [8] is 7.88 µM; in test [1], 8.89 µM; in test [2], 2.98 µM; in test [3] it was 20.2 µM; in test [5] it was 5.93 µM; in test [6], 3.66 µM. The TGI was 48.9 µM in test [8]; above 100 µM in test [1]; 20.8 µM in test [2]; above 100 µM in test [3]; above 100 µM in test [5]; above 100 µM in test [6].

Regarding `CCSCC1CC(O)(c2ccccc2)CC(c2ccc(F)cc2)O1` (stereo not given), the GI50 is 1.4 µM in test [1]; 1.94 µM in test [2]; 2.42 µM in test [3]; 1.6 µM in test [4]; 2.27 µM in test [5]; 2.62 µM in test [6]. Moreover, the GI50 in test [7] is 1.74 µM. Besides, the TGI in test [1] was found to be 5.1 µM; in test [2] it was 5.88 µM; in test [3], 8.16 µM; in test [4], 2.94 µM; in test [5] it was 5.26 µM; in test [6] it was 7.39 µM. The TGI in test [7] came out at 3.16 µM.

The record behind these values is PubChem BioAssay (NCI).
